From patent publication US9657351B2, “MRNA-based gene expression for personalizing patient cancer therapy with an MDM2 antagonist” (Hoffmann-La Roche Inc., priority 2013, dated 2017)

Legend:
A-673 = assay: COMPOUND A In Vitro Assay; format: cell-based; details: Homo sapiens, A673, Muscle, TP53 Mutant
Outline: (§1)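 For this panel of human cancer lines, COMPOUND A was applied in high-throughput screening assays and responses were converted to IC50. A line was considered sensitive when its IC50 was no more than 1, and resistant when it reached 10 or above.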

AN3 CA = assay: COMPOUND A In Vitro Assay; format: cell-based; details: Homo sapiens, Uterus, endometrium, TP53 Mutant
Outline: as §1

BFTC-905 = assay: COMPOUND A In Vitro Assay; format: cell-based; details: Homo sapiens, Urinary, bladder, TP53 Mutant
Outline: as §1

CCRF-CEM = assay: COMPOUND A In Vitro Assay; format: cell-based; details: Homo sapiens, Lymphocyte T, peripheral blood, TP53 Mutant
Outline: as §1

COLO-704 = assay: COMPOUND A In Vitro Assay; format: cell-based; details: Homo sapiens, Ovary, TP53 Wild type
Outline: as §1

Daoy = assay: COMPOUND A In Vitro Assay; format: cell-based; details: Homo sapiens, Brain, cerebellum, TP53 Mutant
Outline: as §1

HCC1599 = assay: COMPOUND A In Vitro Assay; format: cell-based; details: Homo sapiens, Breast, mammary gland, TP53 Mutant
Outline: as §1

HEC-151 = assay: COMPOUND A In Vitro Assay; format: cell-based; details: Homo sapiens, Uterus, TP53 Mutant
Outline: as §1

HEL = assay: COMPOUND A In Vitro Assay; format: cell-based; details: Homo sapiens, Lymphocyte, peripheral blood, TP53 Mutant
Outline: as §1

HeLa S3 = assay: COMPOUND A In Vitro Assay; format: cell-based; details: Homo sapiens, Cervix, TP53 Mutant
Outline: as §1

Huh-7 = assay: COMPOUND A In Vitro Assay; format: cell-based; details: Homo sapiens, Liver, TP53 Mutant
Outline: as §1

KG-1a = assay: COMPOUND A In Vitro Assay; format: cell-based; details: Homo sapiens, Bone marrow, TP53 Mutant
Outline: as §1

KMS-28BM = assay: COMPOUND A In Vitro Assay; format: cell-based; details: Homo sapiens, Lymphocyte, TP53 Mutant
Outline: as §1

Kasumi-1 = assay: COMPOUND A In Vitro Assay; format: cell-based; details: Homo sapiens, Lymphocyte, peripheral blood, TP53 Mutant
Outline: as §1

NCI-H1666 = assay: COMPOUND A In Vitro Assay; format: cell-based; details: Homo sapiens, Lung, TP53 Wild type
Outline: as §1

NCI-H1944 = assay: COMPOUND A In Vitro Assay; format: cell-based; details: Homo sapiens, Lung, TP53 Wild type
Outline: as §1

NCI-H1975 = assay: COMPOUND A In Vitro Assay; format: cell-based; details: Homo sapiens, Lung, TP53 Mutant
Outline: as §1

NCI-H2009 = assay: COMPOUND A In Vitro Assay; format: cell-based; details: Homo sapiens, Lung, TP53 Mutant
Outline: as §1

NCI-H23 = assay: COMPOUND A In Vitro Assay; format: cell-based; details: Homo sapiens, Lung, TP53 NA
Outline: as §1

NCI-H508 = assay: COMPOUND A In Vitro Assay; format: cell-based; details: Homo sapiens, Intestine, large, caecum, TP53 Mutant
Outline: as §1

NCI-H838 = assay: COMPOUND A In Vitro Assay; format: cell-based; details: Homo sapiens, Lung, TP53 Mutant
Outline: as §1

NUGC-3 = assay: COMPOUND A In Vitro Assay; format: cell-based; details: Homo sapiens, Stomach, TP53 Mutant
Outline: as §1

PA-1 = assay: COMPOUND A In Vitro Assay; format: cell-based; details: Homo sapiens
Outline: as §1

PANC-1 = assay: COMPOUND A In Vitro Assay; format: cell-based; details: Homo sapiens, Pancreas, TP53 Mutant
Outline: as §1

PC-6 = assay: COMPOUND A In Vitro Assay; format: cell-based; details: Homo sapiens, Lung, TP53 Wild type
Outline: as §1

Ramos = assay: COMPOUND A In Vitro Assay; format: cell-based; details: Homo sapiens, Lymphocyte B, TP53 Wild type
Outline: as §1

SCaBER = assay: COMPOUND A In Vitro Assay; format: cell-based; details: Homo sapiens, Urinary, bladder, TP53 Mutant
Outline: as §1

SK-MEL-1 = assay: COMPOUND A In Vitro Assay; format: cell-based; details: Homo sapiens
Outline: as §1

SK-MEL-30 = assay: COMPOUND A In Vitro Assay; format: cell-based; details: Homo sapiens, Skin, TP53 Mutant
Outline: as §1

SU•86•86 = assay: COMPOUND A In Vitro Assay; format: cell-based; details: Homo sapiens, SU.86.86, Pancreas, TP53 Mutant
Outline: as §1

SW1116 = assay: COMPOUND A In Vitro Assay; format: cell-based; details: Homo sapiens, SW 1116, Intestine, large, colon, TP53 Mutant
Outline: as §1

SW480 = assay: COMPOUND A In Vitro Assay; format: cell-based; details: Homo sapiens, Intestine, large, colon, TP53 Mutant
Outline: as §1

T84 = assay: COMPOUND A In Vitro Assay; format: cell-based; details: Homo sapiens, Intestine, large, colon, TP53 Mutant
Outline: as §1

T98G = assay: COMPOUND A In Vitro Assay; format: cell-based; details: Homo sapiens, Brain, TP53 Mutant
Outline: as §1

WiDr = assay: COMPOUND A In Vitro Assay; format: cell-based; details: Homo sapiens, Intestine, large, colon, TP53 Mutant
Outline: as §1

YAPC = assay: COMPOUND A In Vitro Assay; format: cell-based; details: Homo sapiens, Pancreas, TP53 Mutant
Outline: as §1

MDM2 mRNA = assay: NP21280 solid tumor trial, tumor biopsy biomarker (MDM2 mRNA); format: in vivo, human; details: at C1D10, p=1.03×10−5

CCOc1cc(C(C)(C)C)ccc1C1=N[C@@](C)(c2ccc(Cl)cc2)[C@@](C)(c2ccc(Cl)cc2)N1C(=O)N1CCN(CCCS(C)(=O)=O)CC1 [COMPOUND A] showed an IC50 (A-673) of 18 µM, an IC50 (AN3 CA) of 18 µM and an IC50 (BFTC-905) of 19 µM. For the same compound, the IC50 (CCRF-CEM) was 9.7 µM, the IC50 (COLO-704) was 20 µM and the IC50 (Daoy) was 9.7 µM. The IC50 (HCC1599) was 12 µM, the IC50 (HEC-151) was 2.2 µM and the IC50 (HEL) was 17 µM. The IC50 (HeLa S3) was 20 µM, the IC50 (Huh-7) was 10 µM and the IC50 (KG-1a) was 9 µM. The IC50 (KMS-28BM) was 9 µM, the IC50 (Kasumi-1) was 21 µM and the IC50 (NCI-H1666) was 13 µM. For the same compound, the IC50 (NCI-H1944) was 7 µM, the IC50 (NCI-H1975) was 16 µM and the IC50 (NCI-H2009) was 9.9 µM. It also gave an IC50 (NCI-H23) of 10 µM, an IC50 (NCI-H508) of 1.2 µM and an IC50 (NCI-H838) of 14 µM. For the same compound, the IC50 (NUGC-3) was 9.8 µM, the IC50 (PA-1; PA-1, PA-1, Ovary, TP53 Wild type) was 0.62 µM and the IC50 (PA-1; PA-1, PA-1 cells) was 0.6 µM. The IC50 (PANC-1) was 22 µM, the IC50 (PC-6) was 8.2 µM and the IC50 (Ramos) was 8.8 µM. It also gave an IC50 (SCaBER) of 8.5 µM, an IC50 (SK-MEL-1; SK-MEL-1, SK-MEL-1, Skin, TP53 Wild type) of 0.75 µM and an IC50 (SK-MEL-1; SK-MEL-1, SK-MEL-1 cells) of 0.8 µM. It also gave an IC50 (SK-MEL-30) of 19 µM, an IC50 (SU•86•86) of 6.7 µM and an IC50 (SW1116) of 12 µM. For the same compound, the IC50 (SW480) was 12 µM, the IC50 (T84) was 5.3 µM and the IC50 (T98G) was 8.3 µM. The IC50 (WiDr) was 8.9 µM, the IC50 (YAPC) was 18 µM and the “MDM2 mRNA expression change from baseline” value (MDM2 mRNA) was “significantly increase”.
